Results on 20 molecules are retold here after US20240228469A1, “PCSK9 INHIBITORS AND METHODS OF USE THEREOF” (AstraZeneca AB, priority 2022, published 2024).

In assay [1] the target is T1, potassium ion channel hERG (Homo sapiens, UniProt Q12809).
T1 construct: expressed in transfected cells; host or cells: Chinese hamster ovary K1 (CHO)
As to the kind of experiment: Assay 5 hERG assay (patch clamp, CHO cells over-expressing hERG). The format is cell-based. Conditions: SyncroPatch 384PE, room temperature, geometric mean, read-out: Assay 5 (hERG Hu CHO if EPh CR-Syncro) GMean IC50. The procedure: This assay (human Ether-d-go-go-Related Gene) measures activity of the compounds at the potassium ion channel hERG (human Ether-d-go-go-Related Gene).
Experiments were performed on the SyncroPatch 384PE high throughput patch clamp platform at room temperature and medium resistance chips with 4 patch holes per site. Chinese hamster ovary K1 (CHO) cell lines over-expressing the ion channel of choice (hERG) were used in assay-ready format and kept in liquid nitrogen or were used from live culture. Cells were either thawed and diluted in HBSS or were detached from flasks and resuspended in HBSS. HBSS comprised 140 mM NaCl, 4 mM KCl, 10 mM HEPES and 5 mM Glucose (pH7.4). The internal patch clamp solution was KF 120 mM, KCl 20 mM, HEPES 10 mM, EGTA 10 mM, and 25 PM Escin (pH 7.2). After the sealing process was complete, the external solution was exchanged for external patch clamp solution comprising NaCl 80 mM, KCl 4 mM, HEPES 10 mM, CaCl2 2 mM, MgCl2 1 mM, glucose 5 mM, and NMDG 60 mM (pH 7.4). All solutions were stored at room temperature, except Escin, which was stored at 4° C. All test compounds were dispensed in greiner-bio 384 well plates and tested in a 6 point cumulative assay (final DMSO concentration 0.33%). Only wells that passed previously agreed acceptance criteria for this platform were used in this analysis (30 MegaOhm seal resistance, Z prime >0.4 and current size >0.2 nA). […]
In general terms: The hERG channel carries a current that helps repolarise heart muscle cells.

Assay [2] deals with GSK3β (Glycogen synthase kinase-3 beta) (Homo sapiens, UniProt P49841). As to the kind of experiment: Assay 6 GSK3β assay (ThermoFisher Z-Lyte FRET). The format is biochemical. As to conditions: ATP Conc: 10 μM, geometric mean; read-out: Assay 6 (GSK3β FRET-Z-Lyte Cr) GMean IC50. The procedure:
This assay measures the activity of the compounds at GSK33 (Glycogen synthase kinase-3 beta).
The test compounds were screened in 1% DMSO (final) in the well. For 10 point titrations, 3-fold serial dilutions are conducted from the starting concentration of 10 PM.
Bar-coded Corning, low volume NBS, black 384-well plate • 1. 2.5 μL—4× Test Compound or 100 nL 100× plus 2.4 μL kinase buffer • 2. 5 μL—2× Peptide/Kinase Mixture • 3. 2.5 μL—4×ATP Solution • 4. 30-second plate shake • 5. 60-minute Kinase Reaction incubation at room temperature • 6. 5 μL—Development Reagent Solution • 7. 30-second plate shake • 8. 60-minute Development Reaction incubation at room temperature • 9. Read on fluorescence plate reader and analyse the data
In step 2, the 2×GSK3β (GSK3 beta)/Ser/Thr (Glycogen synthase kinase-3 beta/Serine/Threonine) 09 mixture is prepared in 50 mM HEPES (4-(2-hydroxyethyl)-1-piperazineethanesulfonic acid) pH 7.5, 0.01% BRIJ-35, 10 mM MgCl2, 1 mM EGTA (egtazic acid). The final 10 μL Kinase Reaction consists of 0.22-0.92 ng GSK3β (GSK3 beta) and 2 PM Ser/Thr 09 in 50 mM HEPES pH 7.5, 0.01% BRIJ-35, 10 mM MgCl2, 1 mM EGTA.
In step 3 the ATP Solution is diluted to a 4× working concentration in Kinase Buffer (50 mM HEPES pH 7.5, 0.01% BRIJ-35, 10 mM MgCl2, 1 mM EGTA).
In Step 6 the Development Reagent is diluted 1:512 in Development Buffer (10× Novel PKC Lipid Mix: 2 mg/mL Phosphatidyl Serine, 0.2 mg/mL DAG in 20 mM HEPES, pH 7.4, 0.3% CHAPS).
SelectScreen® Kinase Profiling Service uses XLfit from IDBS. The dose response curve is curve fit to model number 205 (sigmoidal dose-response model).

A further assay concerns the target PCSK9 (Homo sapiens, UniProt Q8NBP7, G670E/V474I). Nature of the assay: biochemical.

T1 sequence (Q12809 whole entry): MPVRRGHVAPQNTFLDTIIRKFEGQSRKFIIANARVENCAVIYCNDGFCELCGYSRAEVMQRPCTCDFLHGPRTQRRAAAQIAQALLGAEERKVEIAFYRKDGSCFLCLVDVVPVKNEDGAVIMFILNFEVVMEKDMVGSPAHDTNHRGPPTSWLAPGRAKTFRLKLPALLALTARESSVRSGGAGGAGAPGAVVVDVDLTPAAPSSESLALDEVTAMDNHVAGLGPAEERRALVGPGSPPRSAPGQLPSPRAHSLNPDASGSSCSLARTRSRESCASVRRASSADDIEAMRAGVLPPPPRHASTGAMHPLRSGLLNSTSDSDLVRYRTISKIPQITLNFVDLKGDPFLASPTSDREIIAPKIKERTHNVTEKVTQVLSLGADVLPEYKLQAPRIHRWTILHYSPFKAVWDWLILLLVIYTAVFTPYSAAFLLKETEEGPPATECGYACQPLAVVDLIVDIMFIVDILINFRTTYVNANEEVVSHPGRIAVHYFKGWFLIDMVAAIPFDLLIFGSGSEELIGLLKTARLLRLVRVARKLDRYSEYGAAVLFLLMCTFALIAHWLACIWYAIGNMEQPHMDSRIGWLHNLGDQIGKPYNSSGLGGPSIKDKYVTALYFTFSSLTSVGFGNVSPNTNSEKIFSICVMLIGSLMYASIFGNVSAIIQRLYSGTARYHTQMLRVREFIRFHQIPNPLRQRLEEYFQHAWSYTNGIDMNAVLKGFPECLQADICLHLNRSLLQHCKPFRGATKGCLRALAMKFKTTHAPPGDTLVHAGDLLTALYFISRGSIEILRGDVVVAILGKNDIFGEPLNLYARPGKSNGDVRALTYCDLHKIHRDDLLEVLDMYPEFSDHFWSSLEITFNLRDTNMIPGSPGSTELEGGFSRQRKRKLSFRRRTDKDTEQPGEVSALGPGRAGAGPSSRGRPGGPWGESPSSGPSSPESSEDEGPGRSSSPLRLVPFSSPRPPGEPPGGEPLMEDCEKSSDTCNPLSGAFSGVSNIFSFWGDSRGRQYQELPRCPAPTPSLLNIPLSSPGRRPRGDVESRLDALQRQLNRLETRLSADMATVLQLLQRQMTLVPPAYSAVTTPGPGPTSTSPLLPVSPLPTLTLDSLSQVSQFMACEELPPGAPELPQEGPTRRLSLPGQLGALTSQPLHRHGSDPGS
Sequence of GSK3β (Glycogen synthase kinase-3 beta) (P49841 whole entry): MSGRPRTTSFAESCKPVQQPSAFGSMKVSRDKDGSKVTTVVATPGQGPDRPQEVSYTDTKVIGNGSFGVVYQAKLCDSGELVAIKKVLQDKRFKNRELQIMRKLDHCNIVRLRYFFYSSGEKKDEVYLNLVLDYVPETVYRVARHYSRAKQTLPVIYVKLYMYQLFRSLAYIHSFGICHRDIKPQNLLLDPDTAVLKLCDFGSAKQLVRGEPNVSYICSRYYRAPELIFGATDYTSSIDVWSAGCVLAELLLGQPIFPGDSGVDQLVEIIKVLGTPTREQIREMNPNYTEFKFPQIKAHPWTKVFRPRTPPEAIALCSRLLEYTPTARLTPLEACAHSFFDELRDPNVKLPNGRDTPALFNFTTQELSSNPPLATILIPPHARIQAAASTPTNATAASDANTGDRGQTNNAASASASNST
Sequence of PCSK9 (Q8NBP7 with tags, fused parts or gaps V474I/G670E): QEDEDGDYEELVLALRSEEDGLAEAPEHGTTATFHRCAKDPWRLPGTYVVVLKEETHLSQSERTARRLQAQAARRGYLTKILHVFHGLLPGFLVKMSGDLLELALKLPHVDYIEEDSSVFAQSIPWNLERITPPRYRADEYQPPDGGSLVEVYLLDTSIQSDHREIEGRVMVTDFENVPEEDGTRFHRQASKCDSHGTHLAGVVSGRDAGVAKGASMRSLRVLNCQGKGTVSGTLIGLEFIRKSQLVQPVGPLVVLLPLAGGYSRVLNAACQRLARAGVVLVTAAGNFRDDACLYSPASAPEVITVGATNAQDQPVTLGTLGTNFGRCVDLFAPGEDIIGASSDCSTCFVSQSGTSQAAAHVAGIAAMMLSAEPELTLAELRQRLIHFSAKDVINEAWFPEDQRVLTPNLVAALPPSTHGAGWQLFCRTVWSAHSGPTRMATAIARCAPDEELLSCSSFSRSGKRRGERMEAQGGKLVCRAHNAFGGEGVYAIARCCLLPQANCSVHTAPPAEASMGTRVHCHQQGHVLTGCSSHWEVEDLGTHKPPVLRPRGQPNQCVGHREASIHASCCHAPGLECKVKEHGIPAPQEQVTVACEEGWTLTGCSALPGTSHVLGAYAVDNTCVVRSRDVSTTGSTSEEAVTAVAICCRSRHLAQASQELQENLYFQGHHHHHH

As a reminder, the IC50 is the concentration that gives 50% inhibition. In the case of `CC(=O)c1cnc(N[C@H]2CC[C@H](Nc3ccc(-n4ccccc4=O)cn3)C2)nn1` [Example 260, 6′-(((1S,3S)-3-((6-Acetyl-1,2,4-triazin-3-yl)amino)cyclopentyl)amino)-2H-[1,3′-bipyridin]-2-one], the IC50 in assay [1] is greater than 40000 nM; in assay [2], 1320 nM; on PCSK9, 101 nM.
The matching figures for `O=c1cccnn1-c1cnc(N[C@H]2CC[C@H](Nc3ncc(C4CC4)nn3)C2)nc1` [Example 119, 2-(2-(((1S,3S)-3-((6-Cyclopropyl-1,2,4-triazin-3-yl)amino)cyclopentyl)amino)pyrimidin-5-yl)pyridazin-3(2H)-one]: greater than 40000 nM, greater than 10000 nM and 73 nM.
The matching figures for `Cc1cnc(N[C@H]2CC[C@H](Nc3ccc(-c4ncccc4C)cn3)C2)nn1` [Example 248]: greater than 40100 nM, greater than 10000 nM and 13 nM.
On to `Cc1cnc(N[C@H]2CC[C@H](Nc3ccc(-n4nccc(C#N)c4=O)cn3)C2)nn1` [Example 277, 2-(6-(((1S,3S)-3-((6-Methyl-1,2,4-triazin-3-yl)amino)cyclopentyl)amino)pyridin-3-yl)-3-oxo-2,3-dihydropyridazine-4-carbonitrile], for which the half-maximal inhibitory concentration (IC50) in assay [1] was greater than 40100 nM; in assay [2], 9560 nM; on PCSK9, 4.9 nM.
Take `N#Cc1ccc(F)c(-c2ccc(N[C@H]3CC[C@H](Nc4ncc(C5CC5)nn4)C3)nc2)n1` [Example 61, 6′-(((1S,3S)-3-((6-Cyclopropyl-1,2,4-triazin-3-yl)amino)cyclopentyl)amino)-3-fluoro-[2,3′-bipyridine]-6-carbonitrile]: the values for the IC50 (in assay [1]; in assay [2]; against PCSK9) were 5600 nM, greater than 10000 nM and 184 nM, respectively.
For `Cc1cnc(N[C@H]2CC[C@H](Nc3ccc(-c4nc(C)oc4C)cn3)C2)nn1` [Example 314, (1S,3S)—N^1-(5-(2,5-Dimethyloxazol-4-yl)pyridin-2-yl)-N^3-(6-methyl-1,2,4-triazin-3-yl)cyclopentane-1,3-diamine] the same measures were 25700 nM, greater than 10000 nM and 110 nM.
For `Cc1cnc(N[C@H]2CC[C@H](Nc3ccc(-c4ccccc4C#N)cn3)C2)nn1` [Example 247, 2-(6-(((1S,3S)-3-((6-Methyl-1,2,4-triazin-3-yl)amino)cyclopentyl)amino)pyridin-3-yl)benzonitrile], the IC50 in assay [1] was 6600 nM; in assay [2] it was greater than 10000 nM; on PCSK9, 75 nM.
The matching figures for `O=c1ccccn1-c1ccc(N[C@H]2CC[C@H](Nc3ncc(-c4ccn[nH]4)nn3)C2)nc1` [Example 257, 6′-(((1S,3S)-3-((6-(1H-Pyrazol-5-yl)-1,2,4-triazin-3-yl)amino)cyclopentyl)amino)-2H-[1,3′-bipyridin]-2-one]: greater than 40100 nM, 2810 nM and 62 nM.
Consider `O=c1cccnn1-c1cnc(N[C@H]2CC[C@H](Nc3ncc(C4CC4)nn3)C2)cn1` [Example 59, 2-(5-(((1S,3S)-3-((6-Cyclopropyl-1,2,4-triazin-3-yl)amino)cyclopentyl)amino)pyrazin-2-yl)pyridazin-3(2H)-one], for which the IC50 is greater than 40000 nM in assay [1], greater than 10000 nM in assay [2] and 45 nM against PCSK9.
For `Cc1cnc(N[C@H]2CC[C@H](Nc3ccc(-n4ccc(C#N)cc4=O)cn3)C2)nn1` [Example 183, 6′-(((1S,3S)-3-((6-Methyl-1,2,4-triazin-3-yl)amino)cyclopentyl)amino)-2-oxo-2H-[1,3′-bipyridine]-4-carbonitrile] the same measures were greater than 40100 nM, greater than 10000 nM and 30 nM.
The matching figures for `CCSc1cnc(N[C@H]2CC[C@H](Nc3ccc(-n4ccccc4=O)cn3)C2)nn1` [Example 258, 6′-(((1S,3S)-3-((6-(Ethylthio)-1,2,4-triazin-3-yl)amino)cyclopentyl)amino)-2H-[1,3′-bipyridin]-2-one]: 26100 nM, 237 nM and 15 nM.
Take `CN(CCO)C(=O)c1cnc(N[C@H]2CC[C@H](Nc3ccc(-n4ccccc4=O)cn3)C2)nn1` [Example 151, N-(2-Hydroxyethyl)-N-methyl-3-(((1S,3S)-3-((2-oxo-2H-[1,3′-bipyridin]-6′-yl)amino)cyclopentyl)amino)-1,2,4-triazine-6-carboxamide]: the 50% inhibitory concentration (IC50) is greater than 40100 nM in assay [1], greater than 10000 nM in assay [2] and 2250 nM against PCSK9.
`Cn1cccc(-c2cnc(N[C@H]3CC[C@H](Nc4ncc(C5CC5)nn4)C3)cn2)c1=O` [Example 113, 3-(5-(((1S,3S)-3-((6-Cyclopropyl-1,2,4-triazin-3-yl)amino)cyclopentyl)amino)pyrazin-2-yl)-1-methylpyridin-2(1H)-one]: the IC50 in assay [1] was greater than 40000 nM; in assay [2], greater than 10000 nM; at PCSK9 it was 41 nM.
With `COc1cccc(OC)c1-c1ccc(N[C@H]2CC[C@H](Nc3ncc(C)nn3)C2)nc1` [Example 307, (1S,3S)—N^1-(5-(2,6-Dimethoxyphenyl)pyridin-2-yl)-N^3-(6-methyl-1,2,4-triazin-3-yl)cyclopentane-1,3-diamine], the results for the IC50 (in assay [1]; in assay [2]; on PCSK9) were 23300 nM, greater than 10000 nM and 1660 nM, respectively.
Regarding `Cn1cccc(-c2cnc(N[C@H]3CC[C@H](Nc4ncc(C5CC5)nn4)C3)nc2)c1=O` [Example 115, 3-(2-(((1S,3S)-3-((6-Cyclopropyl-1,2,4-triazin-3-yl)amino)cyclopentyl)amino)pyrimidin-5-yl)-1-methylpyridin-2(1H)-one], the IC50 was greater than 40000 nM in assay [1], greater than 10000 nM in assay [2] and 17 nM against PCSK9.
For `CCOC(=O)c1cnc(N[C@H]2CC[C@H](Nc3ccc(-n4ccccc4=O)cn3)C2)nn1` [Compound 10, Ethyl 3-(((1S,3S)-3-((2-oxo-2H-[1,3′-bipyridin]-6′-yl)amino)cyclopentyl)amino)-1,2,4-triazine-6-carboxylate] the same measures were greater than 40000 nM, greater than 10000 nM and 797 nM.
Consider `O=c1ccccn1-c1ccc(N[C@H]2CC[C@H](Nc3ncc(Cl)nn3)C2)nc1` [Example 255, 6′-(((1S,3S)-3-((6-Chloro-1,2,4-triazin-3-yl)amino)cyclopentyl)amino)-2H-[1,3′-bipyridin]-2-one], for which the IC50 in assay [1] is greater than 40100 nM; in assay [2] it was 5330 nM; against PCSK9 it was 78 nM.
The matching figures for `NC(=O)CNC(=O)c1cnc(N[C@H]2CC[C@H](Nc3ccc(-n4ccccc4=O)cn3)C2)nn1` [Example 68, N-(2-Amino-2-oxoethyl)-3-(((1S,3S)-3-((2-oxo-2H-[1,3′-bipyridin]-6′-yl)amino)cyclopentyl)amino)-1,2,4-triazine-6-carboxamide]: greater than 40000 nM, greater than 10000 nM and 168 nM.
The matching figures for `Cc1cnc(N[C@H]2CC[C@H](Nc3ccc(-n4nc(Cl)ccc4=O)cn3)C2)nn1` [Example 222]: greater than 40100 nM, greater than 10000 nM and 8.3 nM.
The matching figures for `Cc1cnc(N[C@H]2CC[C@H](Nc3ccc(-n4cc5ccccc5n4)cn3)C2)nn1` [Example 312, (1S,3S)—N^1-(5-(2H-Indazol-2-yl)pyridin-2-yl)-N^3-(6-methyl-1,2,4-triazin-3-yl)cyclopentane-1,3-diamine]: 4200 nM, greater than 10000 nM and 37 nM.
